From publication PMC6921030, “Biochemical Characterization of a Novel α/β-Hydrolase/FSH from the White Shrimp Litopenaeus vannamei” (Biomolecules, 2019)

Molecular target: T1, LvFSH (LvFHS) (Penaeus vannamei, UniProt A0A3R7MXL5)
T1 construct: gene C7M84_009540; synthetic codon-optimised gene of LvFSH coding region, N-terminal 10-His tag (cutting not mentioned), pJexpress414, E. coli BL21DE3-SI; about 27 kDa on SDS-PAGE, about 58 kDa by gel filtration (probable dimer); catalytic triad Ser111/Asp169/His196 proposed; C-terminal motif KMRELC 214-219
Experiment: spectrophotometric p-nitrophenol release at […] nm, non-linear Michaelis-Menten fit
Format: biochemical
Conditions: 50 mM Tris-HCl pH 8.0, 37 °C, 0.2% (v/v) Triton X-100, 50 mM NaCl; substrate 0.05-2 mM in ethanol

T1 sequence (A0A3R7MXL5 entry or part of it): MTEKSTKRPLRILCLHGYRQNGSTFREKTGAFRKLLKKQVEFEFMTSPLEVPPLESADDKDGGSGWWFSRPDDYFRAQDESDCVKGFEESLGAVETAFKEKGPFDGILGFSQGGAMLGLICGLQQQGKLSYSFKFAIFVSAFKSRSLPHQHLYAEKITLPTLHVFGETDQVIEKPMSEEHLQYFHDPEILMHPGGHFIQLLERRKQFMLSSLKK

Km: 1000 ± 40 µM
SMILES: CC(=O)Oc1ccc([N+](=O)[O-])cc1 [p-nitrophenyl acetate]
